Source: patent publication US9701689B2, “Substituted pyridines and pyridazines as CCR10 receptor inhibitors” (KYOWA HAKKO KIRIN CO., LTD., priority 2012, dated 2017)

molecular target: T1, human CCR10 (Homo sapiens, UniProt P46092); test: CCR10 antagonistic effect: calcium assay of human CCR10 (CTACK-induced increase of intracellular calcium in hCCR10G16 cells); type: cell-based; conditions: at a concentration of not more than 1000 nmol/L; human CCR10-expressing hCCR10G16 cells, 300 nmol/L CTACK added; read-out: inhibition of increase in the calcium ion concentration
T1 construct: expressed in transfected cells; host or cells: KJMGER8 cells (Namalwa cell-derived line), beta-estradiol-induced; hCCR10G16 cells
T1 sequence (P46092 1-362): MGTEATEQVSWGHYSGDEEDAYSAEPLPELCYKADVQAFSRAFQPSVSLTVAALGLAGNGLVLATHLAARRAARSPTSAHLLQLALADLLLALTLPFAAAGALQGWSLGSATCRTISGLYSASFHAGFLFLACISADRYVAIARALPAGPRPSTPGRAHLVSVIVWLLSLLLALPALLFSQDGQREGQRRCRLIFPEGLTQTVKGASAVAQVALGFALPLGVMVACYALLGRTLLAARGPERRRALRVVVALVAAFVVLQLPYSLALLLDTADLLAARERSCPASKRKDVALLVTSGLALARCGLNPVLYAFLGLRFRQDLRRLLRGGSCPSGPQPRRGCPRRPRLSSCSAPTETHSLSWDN
How it was run: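 Inhibition of CTACK-evoked calcium flux (max minus min Fluo-3 fluorescence over ~5 min, FDSS) was calculated against control in β-estradiol-induced human CCR10/Gα16 KJMGER8 cells, after 30 min compound preincubation at 37 °C; CTACK added from a 300 nmol/L solution.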

Compound	inhibition at up to 1 µM [%]
Cc1cc(F)ccc1Nc1cc(S(=O)(=O)NC2CCNC2=O)ncc1C(=O)N1CCC(c2ccc(F)cc2)CC1 (stereo not drawn) [Compound 142, 4-(4-fluoro-2-methylphenylamino)-5-[4-(4-fluorophenyl)piperidine-1-carbonyl]-N-(2-oxopyrrolidin-3-yl)pyridine-2-sulfonamide]	≥ 50
Cc1cc(F)ccc1Nc1cc(S(=O)(=O)N2CCOC2=O)ncc1C(=O)N1CCC(c2ccc(F)cc2)CC1 [Compound 143, 3-{4-(4-fluoro-2-methylphenylamino)-5-[4-(4-fluorophenyl)piperidine-1-carbonyl]pyridin-2-ylsulfonyl}oxazolidin-2-one]	≥ 50
Cc1cc(F)ccc1Nc1cc(S(=O)(=O)N2CCNC2=O)ncc1C(=O)N1CCC(c2ccc(F)cc2)CC1 [Compound 144, 1-{4-(4-fluoro-2-methylphenylamino)-5-[4-(4-fluorophenyl)piperidine-1-carbonyl]pyridin-2-ylsulfonyl}imidazolidin-2-one]	≥ 50
Cc1cc(F)ccc1Nc1cc(S(=O)(=O)Nc2ncccn2)ncc1C(=O)N1CCC(c2ccc(F)cc2)CC1 [Compound 145, 4-(4-fluoro-2-methylphenylamino)-5-[4-(4-fluorophenyl)piperidine-1-carbonyl]-N-(pyrimidin-2-yl)pyridine-2-sulfonamide]	≥ 50
Cc1cc(F)ccc1Nc1cc(S(=O)(=O)Nc2ccccn2)ncc1C(=O)N1CCC(c2ccc(F)cc2)CC1 [Compound 146, 4-(4-fluoro-2-methylphenylamino)-5-[4-(4-fluorophenyl)piperidine-1-carbonyl]-N-(pyridin-2-yl)pyridine-2-sulfonamide]	≥ 50
Cc1cc(F)ccc1Nc1cc(S(=O)(=O)Nc2ncc(Br)cn2)ncc1C(=O)N1CCC(c2ccc(F)cc2)CC1 [Compound 147, N-(5-bromopyrimidin-2-yl)-4-(4-fluoro-2-methylphenylamino)-5-[4-(4-fluorophenyl)piperidine-1-carbonyl]pyridine-2-sulfonamide]	≥ 50
Cc1cc(F)ccc1Nc1cc(S(=O)(=O)Nc2nccn2C)ncc1C(=O)N1CCC(c2ccc(F)cc2)CC1 [Compound 149, 4-(4-fluoro-2-methylphenylamino)-5-[4-(4-fluorophenyl)piperidine-1-carbonyl]-N-(1-methyl-1H-imidazol-2-yl)pyridine-2-sulfonamide]	≥ 50
CSc1nccc(NS(=O)(=O)c2cc(Nc3ccc(F)cc3C)c(C(=O)N3CCC(c4ccc(F)cc4)CC3)cn2)n1 [Compound 150, 4-(4-fluoro-2-methylphenylamino)-5-[4-(4-fluorophenyl)piperidine-1-carbonyl]-N-[2-(methylthio)pyrimidin-4-yl]pyridine-2-sulfonamide]	≥ 50
Cc1cc(F)ccc1Nc1cc(S(=O)(=O)Nc2cscn2)ncc1C(=O)N1CCC(c2ccc(F)cc2)CC1 [Compound 154, 4-(4-fluoro-2-methylphenylamino)-5-[4-(4-fluorophenyl)piperidine-1-carbonyl]-N-(thiazol-4-yl)pyridine-2-sulfonamide]	≥ 50
Cc1cc(F)ccc1Nc1cc(S(=O)(=O)Nc2cncs2)ncc1C(=O)N1CCC(c2ccc(F)cc2)CC1 [Compound 155, 4-(4-fluoro-2-methylphenylamino)-5-[4-(4-fluorophenyl)piperidine-1-carbonyl]-N-(thiazol-5-yl)pyridine-2-sulfonamide]	≥ 50
Cc1cc(F)ccc1Nc1cc(S(=O)(=O)Nc2cncnc2)ncc1C(=O)N1CCC(c2ccc(F)cc2)CC1 [Compound 156, 4-(4-fluoro-2-methylphenylamino)-5-[4-(4-fluorophenyl)piperidine-1-carbonyl]-N-(pyrimidin-5-yl)pyridine-2-sulfonamide]	≥ 50
Cc1cc(F)ccc1Nc1cc(S(=O)(=O)Nc2cc(C(C)(C)C)on2)ncc1C(=O)N1CCC(c2ccc(F)cc2)CC1 [Compound 159, N-(5-tert-butylisoxazol-3-yl)-4-(4-fluoro-2-methylphenylamino)-5-[4-(4-fluorophenyl)piperidine-1-carbonyl]pyridine-2-sulfonamide]	≥ 50

Second part, the molecule after the results:

inhibition at up to 1 µM [%]	Compound
≥ 50	Cc1cc(F)ccc1Nc1cc(S(=O)(=O)Nc2nccs2)ncc1C(=O)N1CCC(c2ccc(F)cc2)CC1 [Compound 148, 4-(4-fluoro-2-methylphenylamino)-5-[4-(4-fluorophenyl)piperidine-1-carbonyl]-N-(thiazol-2-yl)pyridine-2-sulfonamide]
≥ 50	Cc1cc(F)ccc1Nc1cc(S(=O)(=O)Nc2c(C)noc2C)ncc1C(=O)N1CCC(c2ccc(F)cc2)CC1 [Compound 151, N-(3,5-dimethylisoxazol-4-yl)-4-(4-fluoro-2-methylphenylamino)-5-[4-(4-fluorophenyl)piperidine-1-carbonyl]pyridine-2-sulfonamide]
≥ 50	Cc1cc(F)ccc1Nc1cc(S(=O)(=O)Nc2c(C)nn(C)c2C)ncc1C(=O)N1CCC(c2ccc(F)cc2)CC1 [Compound 152, 4-(4-fluoro-2-methylphenylamino)-5-[4-(4-fluorophenyl)piperidine-1-carbonyl]-N-(1,3,5-trimethyl-1H-pyrazol-4-yl)pyridine-2-sulfonamide]
≥ 50	Cc1cc(F)ccc1Nc1cc(S(=O)(=O)Nc2ccn(C)n2)ncc1C(=O)N1CCC(c2ccc(F)cc2)CC1 [Compound 153, 4-(4-fluoro-2-methylphenylamino)-5-[4-(4-fluorophenyl)piperidine-1-carbonyl]-N-(1-methyl-1H-pyrazol-3-yl)pyridine-2-sulfonamide]
≥ 50	Cc1cc(NS(=O)(=O)c2cc(Nc3ccc(F)cc3C)c(C(=O)N3CCC(c4ccc(F)cc4)CC3)cn2)no1 [Compound 157, 4-(4-fluoro-2-methylphenylamino)-5-[4-(4-fluorophenyl)piperidine-1-carbonyl]-N-(5-methylisoxazol-3-yl)pyridine-2-sulfonamide]
≥ 50	Cc1cc(F)ccc1Nc1cc(S(=O)(=O)Nc2onc(C)c2C)ncc1C(=O)N1CCC(c2ccc(F)cc2)CC1 [Compound 158, N-(3,4-dimethylisoxazol-5-yl)-4-(4-fluoro-2-methylphenylamino)-5-[4-(4-fluorophenyl)piperidine-1-carbonyl]pyridine-2-sulfonamide]
≥ 50	Cc1cc(F)ccc1Nc1cc(S(=O)(=O)NC(=O)C2CC2)ncc1C(=O)N1CCC(c2ccc(F)cc2)CC1 [Compound 160, N-{4-(4-fluoro-2-methylphenylamino)-5-[4-(4-fluorophenyl)piperidine-1-carbonyl]pyridin-2-ylsulfonyl}cyclopropanecarboxamide]
≥ 50	CCNC(=O)NS(=O)(=O)c1cc(Nc2cc(C)ccc2Cl)c(C(=O)N2CCC(c3ccc(F)cc3)CC2)cn1 [Compound 161, 4-(2-chloro-5-methylphenylamino)-N-(ethylcarbamoyl)-5-[4-(4-fluorophenyl)piperidine-1-carbonyl]pyridine-2-sulfonamide]
≥ 50	CCCNC(=O)NS(=O)(=O)c1cc(Nc2cc(C)ccc2Cl)c(C(=O)N2CCC(c3ccc(F)cc3)CC2)cn1 [Compound 162, 4-(2-chloro-5-methylphenylamino)-5-[4-(4-fluorophenyl)piperidine-1-carbonyl]-N-(propylcarbamoyl)pyridine-2-sulfonamide]
≥ 50	CCNC(=O)NS(=O)(=O)c1cc(NCc2ccccc2)c(C(=O)N2CCC(c3ccc(F)cc3)CC2)cn1 [Compound 163, 4-(benzylamino)-N-(ethylcarbamoyl)-5-[4-(4-fluorophenyl)piperidine-1-carbonyl]pyridine-2-sulfonamide]
≥ 50	CCNC(=O)NS(=O)(=O)c1cc(Nc2cc(C)c(Cl)cc2Cl)c(C(=O)N2CCC(c3ccc(F)cc3)CC2)cn1 [Compound 164, 4-(2,4-dichloro-5-methylphenylamino)-N-(ethylcarbamoyl)-5-[4-(4-fluorophenyl)piperidine-1-carbonyl]pyridine-2-sulfonamide]
≥ 50	CCCNC(=O)NS(=O)(=O)c1cc(Nc2cc(C)c(Cl)cc2Cl)c(C(=O)N2CCC(c3ccc(F)cc3)CC2)cn1 [Compound 165, 4-(2,4-dichloro-5-methylphenylamino)-5-[4-(4-fluorophenyl)piperidine-1-carbonyl]-N-(propylcarbamoyl)pyridine-2-sulfonamide]
≥ 50	CCNC(=O)NS(=O)(=O)c1cc(Nc2cc(C)c(Cl)cc2C)c(C(=O)N2CCC(c3ccc(F)cc3)CC2)cn1 [Compound 166, 4-(4-chloro-2,5-dimethylphenylamino)-N-(ethylcarbamoyl)-5-[4-(4-fluorophenyl)piperidine-1-carbonyl]pyridine-2-sulfonamide]
≥ 50	CCCNC(=O)NS(=O)(=O)c1cc(Nc2cc(C)c(Cl)cc2C)c(C(=O)N2CCC(c3ccc(F)cc3)CC2)cn1 [Compound 167, 4-(4-chloro-2,5-dimethylphenylamino)-5-[4-(4-fluorophenyl)piperidine-1-carbonyl]-N-(propylcarbamoyl)pyridine-2-sulfonamide]
≥ 50	CCCNC(=O)NS(=O)(=O)c1cc(Nc2ccc(F)cc2C)c(C(=O)N2CCC(c3ccc(F)cc3)CC2)cn1 [Compound 168, 4-(4-fluoro-2-methylphenylamino)-5-[4-(4-fluorophenyl)piperidine-1-carbonyl]-N-(propylcarbamoyl)pyridine-2-sulfonamide]
